Consider seven sequences from patent US20030186355A1, “Methods for selecting and producing t cell peptide epitopes and vaccines incorporating said selected epitopes” (priority 2000, published 2003).

Like-named read-outs stand apart in the source and are kept apart here.

The subject of experiment [1] is TAP. As to conditions: previous study, Neisig et al., 1995; cited from earlier work.
Experiment [2] deals with TAP. In words: TAP translocation of peptides into the endoplasmic reticulum. The format is biochemical.
In a further experiment the test system is T2 cells. The experiment can be described thus: 51Cr cytotoxicity assay with peptide pulsed targets. The format is cell-based, human. As to conditions: targets pulsed at high peptide concentrations. As for the experimental part:
CTL activity was measured in a standard chromium release assay. Briefly, after ^51Cr labeling, target cells were pulsed with the designated peptide concentrations for 30 min or longer at 37° C. Target cells were added to various number of effector cells in a final volume of 100 μl complete culture medium in 96-well-U-bottom plates. After 4 h incubation at 37° C. supernatants were harvested.

Regarding FAPGNYPAL, the “translocation by TAP into the ER” value in the experiment on TAP [1] is reported as “not efficiently translocated”.

“FNKSPWFTTL [proteasome fragment of MCF substrate, 10-mer]”: the “translocation by TAP into the ER” value with TAP [2] is given as “efficiently translocated”.

For “FNKSPWFTTLI [proteasome fragment of MCF substrate, 11-mer]”, the “translocation by TAP into the ER” value in the experiment on TAP [2] was “efficiently translocated”.

“GEFAPGNYPAL [proteasome fragment of Sendai substrate, N-terminally elongated 11-mer]”: the “translocation by TAP into the ER” value with TAP [1] was “most efficiently translocated length variant”.

Take KSPWFTTL: in the experiment with TAP [1], the “translocation by TAP into the ER” value is “not translocated by TAP at all”.

On to “LYVDSLFFL [PRAME aa; 301-309, naturally presented in HLA-A24]”, for which the “lysis of peptide pulsed targets by CTL clones” value with T2 cells is “very low crossreactivity”.

As for “PSSSWDFITVD [peptide fragment said to be generated by FBL-3 cells]”, in the experiment on TAP [2], the “translocation by TAP into the ER” value is “completely abolishes TAP translocation”.
